Patent publication US8129399B2, “Aminopyrimidines useful as kinase inhibitors” (Vertex Pharmaceuticals Incorporated, priority 2005, dated 2012)
pIC50, pKi: −log10 of the molar value. Read-outs that look alike come from different tables or passages of the source.

Assays:
FLT-3 = biological target: T1, FLT-3 (Homo sapiens, UniProt P36888); assay: FLT-3 inhibition assay, radiometric filter-binding; type: biochemical; settings: 90 μM ATP
T1 sequence (P36888 27-993): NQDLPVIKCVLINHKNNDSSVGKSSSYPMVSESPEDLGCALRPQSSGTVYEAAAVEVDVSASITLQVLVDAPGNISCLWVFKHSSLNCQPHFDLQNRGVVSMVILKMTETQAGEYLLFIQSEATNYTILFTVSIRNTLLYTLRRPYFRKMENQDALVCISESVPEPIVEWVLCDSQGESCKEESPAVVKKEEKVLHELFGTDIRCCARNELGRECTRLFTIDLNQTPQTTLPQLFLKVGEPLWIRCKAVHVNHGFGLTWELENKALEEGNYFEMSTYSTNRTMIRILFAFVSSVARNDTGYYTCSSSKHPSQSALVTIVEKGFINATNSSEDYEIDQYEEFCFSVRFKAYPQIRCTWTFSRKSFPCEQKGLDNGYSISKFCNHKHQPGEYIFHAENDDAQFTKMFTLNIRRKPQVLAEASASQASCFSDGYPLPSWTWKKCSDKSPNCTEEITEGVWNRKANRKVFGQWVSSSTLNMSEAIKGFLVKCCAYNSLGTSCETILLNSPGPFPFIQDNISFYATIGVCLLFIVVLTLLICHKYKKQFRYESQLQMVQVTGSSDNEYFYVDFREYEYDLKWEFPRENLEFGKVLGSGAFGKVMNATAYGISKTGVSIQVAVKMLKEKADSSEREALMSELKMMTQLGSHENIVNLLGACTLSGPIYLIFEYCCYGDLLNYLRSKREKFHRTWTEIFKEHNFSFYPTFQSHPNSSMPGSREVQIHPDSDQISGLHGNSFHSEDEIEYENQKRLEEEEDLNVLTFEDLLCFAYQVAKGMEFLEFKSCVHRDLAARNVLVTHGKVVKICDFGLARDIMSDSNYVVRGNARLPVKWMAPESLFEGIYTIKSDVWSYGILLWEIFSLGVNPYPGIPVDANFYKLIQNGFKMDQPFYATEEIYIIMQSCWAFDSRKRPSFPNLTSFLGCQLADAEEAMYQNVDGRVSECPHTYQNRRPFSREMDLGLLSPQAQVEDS
Description: This assay monitors the ^33P incorporation into a substrate poly(Glu, Tyr) 4:1 (pE4Y). Reactions were carried out in a solution containing 100 mM HEPES (pH 7.5), 10 mM MgCl2, 25 mM NaCl, 1 mM DTT, 0.01% BSA and 2.5% DMSO. Final substrate concentrations in the assay were 90 μM ATP and 0.5 mg/ml pE4Y (both from Sigma Chemicals, St Louis, Mo.). The final concentration of a compound of the present invention was generally between 0.01 and 5 μM. Typically, a 12-point titration was conducted by preparing serial dilutions from 10 mM DMSO stock of test compound. Reactions were carried out at room temperature.
Two assay solutions were prepared. Solution 1 contains 100 mM HEPES (pH 7.5), 10 mM MgCl2, 25 mM NaCl, 1 mg/ml pE4Y and […] (containing 0.3 mCi of [γ-33^P]ATP for each reaction). Solution 2 contains 100 mM HEPES (pH 7.5), 10 mM MgCl2, 25 mM NaCl, 2 mM DTT, 0.02% BSA and 3 nM FLT-3. The assay was run on a 96 well plate by mixing 50 μl each of Solution 1 and […] of the compounds of the present invention. The reaction was initiated with Solution 2. […] All of the reaction volume was then transferred to a filter plate and washed with 5% TCA by a Harvester 9600 from TOMTEC (Hamden, Conn.). The amount of ^33P incorporation into pE4y was analyzed by a Packard Top Count Microplate Scintillation Counter (Meriden, Conn.). The data was fitted using Prism software to get an IC50 or Ki.

[1] = biological target: N-terminally truncated (Δ 27) Abl kinase (Homo sapiens, UniProt P00519); assay: Abl kinase activity inhibition assay, coupled enzyme; type: biochemical
N-terminally truncated (Δ 27) Abl kinase, sequence (P00519 28-1130 limits assumed, stated change not applied): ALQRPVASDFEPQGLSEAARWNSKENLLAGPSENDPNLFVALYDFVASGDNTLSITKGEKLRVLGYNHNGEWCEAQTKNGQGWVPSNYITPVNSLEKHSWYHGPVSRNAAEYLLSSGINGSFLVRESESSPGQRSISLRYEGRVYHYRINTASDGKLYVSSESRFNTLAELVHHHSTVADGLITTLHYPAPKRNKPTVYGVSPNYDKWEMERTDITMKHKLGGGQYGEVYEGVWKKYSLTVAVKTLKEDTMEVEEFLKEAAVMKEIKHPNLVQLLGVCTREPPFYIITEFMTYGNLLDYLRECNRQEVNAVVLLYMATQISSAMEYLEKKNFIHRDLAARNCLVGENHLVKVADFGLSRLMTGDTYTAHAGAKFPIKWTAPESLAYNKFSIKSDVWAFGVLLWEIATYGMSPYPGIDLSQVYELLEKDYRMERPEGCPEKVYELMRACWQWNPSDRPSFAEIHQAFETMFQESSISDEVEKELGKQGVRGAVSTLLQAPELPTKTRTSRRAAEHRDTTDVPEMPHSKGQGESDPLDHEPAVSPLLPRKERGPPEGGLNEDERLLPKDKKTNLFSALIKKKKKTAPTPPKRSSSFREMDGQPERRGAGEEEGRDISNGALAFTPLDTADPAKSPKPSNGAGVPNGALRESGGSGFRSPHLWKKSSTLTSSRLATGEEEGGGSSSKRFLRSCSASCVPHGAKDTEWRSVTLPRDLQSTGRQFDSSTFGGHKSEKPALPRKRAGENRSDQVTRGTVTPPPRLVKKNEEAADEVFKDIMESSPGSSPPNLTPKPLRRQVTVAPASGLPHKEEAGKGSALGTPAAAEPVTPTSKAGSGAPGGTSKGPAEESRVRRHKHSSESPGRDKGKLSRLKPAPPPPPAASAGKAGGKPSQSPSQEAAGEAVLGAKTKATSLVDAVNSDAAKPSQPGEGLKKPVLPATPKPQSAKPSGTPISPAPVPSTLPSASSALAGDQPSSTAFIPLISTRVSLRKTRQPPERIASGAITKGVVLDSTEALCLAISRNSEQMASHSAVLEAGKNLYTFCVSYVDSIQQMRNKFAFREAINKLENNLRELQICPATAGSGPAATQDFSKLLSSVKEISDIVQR
Description: Reactions were carried out in a solution containing 100 mM HEPES (pH 7.5), 10 mM MgCl2, 25 mM NaCl, 300 μM NADH, 1 mM DTT and 3% DMSO. […] Final concentrations of the components of the coupled enzyme system were 2.5 mM phosphoenolpyruvate, 200 μM NADH, 60 μg/ml pyruvate kinase and 20 μg/ml lactate dehydrogenase.
An assay stock buffer solution was prepared containing all of the reagents listed above with the exception of ATP and the test compound of interest. […] Rates of reaction were obtained using a Molecular Devices Spectramax plate reader (Sunnyvale, Calif.) over 10 min at 30° C. The Ki values were determined from the residual rate data as a function of inhibitor concentration using nonlinear regression (Prism 3.0, Graphpad Software, San Diego, Calif.).

JAK-2 = JAK-2 (Homo sapiens, UniProt O60674); assay: JAK2 inhibition assay; type: biochemical; settings: 12 μM ATP
JAK-2, sequence (O60674 whole entry, species assumed): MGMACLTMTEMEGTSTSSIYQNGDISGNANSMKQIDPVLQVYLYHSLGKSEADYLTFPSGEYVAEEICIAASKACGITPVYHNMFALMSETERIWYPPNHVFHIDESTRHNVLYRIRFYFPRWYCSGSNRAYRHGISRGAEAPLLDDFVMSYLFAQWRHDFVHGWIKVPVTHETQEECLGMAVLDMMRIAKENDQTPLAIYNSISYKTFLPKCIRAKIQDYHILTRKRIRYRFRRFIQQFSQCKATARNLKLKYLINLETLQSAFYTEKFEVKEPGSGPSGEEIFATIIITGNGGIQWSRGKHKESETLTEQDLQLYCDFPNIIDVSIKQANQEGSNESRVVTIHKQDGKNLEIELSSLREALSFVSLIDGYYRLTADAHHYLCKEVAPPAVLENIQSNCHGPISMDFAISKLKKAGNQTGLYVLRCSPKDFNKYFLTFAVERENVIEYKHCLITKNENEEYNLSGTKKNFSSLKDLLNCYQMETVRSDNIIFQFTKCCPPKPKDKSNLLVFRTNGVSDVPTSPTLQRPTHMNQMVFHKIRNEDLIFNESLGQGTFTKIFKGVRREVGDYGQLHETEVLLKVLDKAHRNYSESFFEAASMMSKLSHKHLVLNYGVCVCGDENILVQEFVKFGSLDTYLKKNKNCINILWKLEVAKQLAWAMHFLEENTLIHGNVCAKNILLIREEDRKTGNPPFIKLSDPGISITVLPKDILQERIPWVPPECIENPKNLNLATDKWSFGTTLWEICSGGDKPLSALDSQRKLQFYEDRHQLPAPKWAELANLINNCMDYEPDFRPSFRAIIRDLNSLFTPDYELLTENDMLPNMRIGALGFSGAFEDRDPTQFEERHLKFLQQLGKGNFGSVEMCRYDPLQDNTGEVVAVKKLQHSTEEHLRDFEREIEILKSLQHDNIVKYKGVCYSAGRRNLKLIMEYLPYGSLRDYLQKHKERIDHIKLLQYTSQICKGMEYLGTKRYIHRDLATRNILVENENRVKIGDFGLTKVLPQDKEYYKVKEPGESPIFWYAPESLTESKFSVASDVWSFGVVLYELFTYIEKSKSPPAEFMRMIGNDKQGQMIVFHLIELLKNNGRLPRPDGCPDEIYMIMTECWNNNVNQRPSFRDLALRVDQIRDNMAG

Colo205 cells = assay: Colo205 cell proliferation, 3H thymidine incorporation; type: cell-based; settings: Homo sapiens
Description: Colo205 cells were seeded in 96 well plates and serially diluted compound was added to the wells in duplicate. Control groups included untreated cells, the compound diluent (0.1% DMSO alone) and culture medium without cells.
To measure proliferation, 3 h prior to the end of the experiment 0.5 μCi of 3H thymidine was added to each well. Cells were then harvested and the incorporated radioactivity counted on a Wallac microplate beta-counter. Cell viability was assessed using Promega CellTiter 96AQ to measure MTS conversion. Dose response curves were calculated using either Prism 3.0 (GraphPad) or SoftMax Pro 4.3.1 LS (Molecular Devices) software.

MLK1 = MLK1 (Homo sapiens, UniProt P80192); assay: MLK1 inhibition screen; type: biochemical; settings: ATP at or close to Km
From the text: (§1) Compound(s) were screened for their ability to inhibit Arg (Abl-2), FGFR1, MLK1, Tie2, and TrkA using screening methods known to one of ordinary skill in the art. All of the above enzymes were screened with ATP concentrations at or close to the Km for ATP.

FGFR1 = FGFR1 (Homo sapiens, UniProt P11362); assay: FGFR1 inhibition screen; type: biochemical; settings: ATP at or close to Km
FGFR1, sequence (P11362 22-822, species assumed): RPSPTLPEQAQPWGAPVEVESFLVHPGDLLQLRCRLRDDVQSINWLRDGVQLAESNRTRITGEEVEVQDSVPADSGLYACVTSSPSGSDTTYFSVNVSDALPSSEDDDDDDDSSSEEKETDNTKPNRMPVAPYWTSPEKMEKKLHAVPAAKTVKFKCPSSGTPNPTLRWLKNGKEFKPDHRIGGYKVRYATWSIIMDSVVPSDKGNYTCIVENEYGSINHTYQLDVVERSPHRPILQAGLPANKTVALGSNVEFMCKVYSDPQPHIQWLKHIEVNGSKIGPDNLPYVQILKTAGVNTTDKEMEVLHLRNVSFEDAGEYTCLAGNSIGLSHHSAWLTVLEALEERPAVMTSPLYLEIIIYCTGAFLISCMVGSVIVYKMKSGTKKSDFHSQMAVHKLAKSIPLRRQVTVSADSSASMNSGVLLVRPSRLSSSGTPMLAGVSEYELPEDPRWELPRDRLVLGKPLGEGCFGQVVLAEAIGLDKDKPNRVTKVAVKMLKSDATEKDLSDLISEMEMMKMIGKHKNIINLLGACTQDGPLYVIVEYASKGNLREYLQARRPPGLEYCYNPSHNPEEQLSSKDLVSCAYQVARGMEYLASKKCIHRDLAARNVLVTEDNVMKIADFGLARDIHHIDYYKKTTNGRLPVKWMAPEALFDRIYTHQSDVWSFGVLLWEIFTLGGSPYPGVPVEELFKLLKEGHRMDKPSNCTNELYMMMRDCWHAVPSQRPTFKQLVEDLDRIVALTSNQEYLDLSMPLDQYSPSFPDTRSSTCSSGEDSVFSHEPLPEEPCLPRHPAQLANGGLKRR
From the text: as §1

Arg (Abl-2) = Arg (Abl-2) (Homo sapiens, UniProt P42684); assay: Arg (Abl-2) inhibition screen; type: biochemical; settings: ATP at or close to Km
Arg (Abl-2), sequence (P42684 whole entry, species assumed): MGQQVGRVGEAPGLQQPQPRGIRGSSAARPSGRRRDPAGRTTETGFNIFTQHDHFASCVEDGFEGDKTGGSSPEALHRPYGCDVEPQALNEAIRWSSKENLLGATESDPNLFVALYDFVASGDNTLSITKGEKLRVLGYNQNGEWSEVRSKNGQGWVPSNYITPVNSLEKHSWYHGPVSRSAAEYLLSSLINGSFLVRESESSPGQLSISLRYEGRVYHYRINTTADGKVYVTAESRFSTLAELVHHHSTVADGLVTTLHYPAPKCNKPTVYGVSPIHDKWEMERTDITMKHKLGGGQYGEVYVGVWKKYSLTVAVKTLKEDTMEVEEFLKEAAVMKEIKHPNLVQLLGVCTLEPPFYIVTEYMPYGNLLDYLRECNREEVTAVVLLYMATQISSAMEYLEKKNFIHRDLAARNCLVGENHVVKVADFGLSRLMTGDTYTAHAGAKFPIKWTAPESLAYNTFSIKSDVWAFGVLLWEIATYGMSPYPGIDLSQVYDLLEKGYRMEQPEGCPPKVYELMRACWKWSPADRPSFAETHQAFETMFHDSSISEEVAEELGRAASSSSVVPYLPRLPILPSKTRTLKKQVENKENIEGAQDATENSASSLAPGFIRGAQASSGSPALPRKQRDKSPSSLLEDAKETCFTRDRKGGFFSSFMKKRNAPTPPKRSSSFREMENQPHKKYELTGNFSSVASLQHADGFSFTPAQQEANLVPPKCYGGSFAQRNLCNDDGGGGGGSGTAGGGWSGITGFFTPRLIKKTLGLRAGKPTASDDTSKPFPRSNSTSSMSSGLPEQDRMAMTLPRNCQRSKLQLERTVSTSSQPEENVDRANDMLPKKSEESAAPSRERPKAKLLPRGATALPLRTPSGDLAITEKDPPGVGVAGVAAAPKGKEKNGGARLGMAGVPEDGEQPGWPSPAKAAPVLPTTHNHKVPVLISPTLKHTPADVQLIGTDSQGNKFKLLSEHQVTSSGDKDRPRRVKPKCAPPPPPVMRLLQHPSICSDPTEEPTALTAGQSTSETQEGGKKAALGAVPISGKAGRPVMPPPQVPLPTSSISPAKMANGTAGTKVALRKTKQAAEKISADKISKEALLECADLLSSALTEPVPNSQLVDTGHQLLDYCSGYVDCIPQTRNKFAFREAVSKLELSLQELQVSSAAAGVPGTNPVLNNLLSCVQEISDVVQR
From the text: as §1

TrkA = TrkA (Homo sapiens, UniProt P04629); assay: TrkA inhibition screen; type: biochemical; settings: ATP at or close to Km
TrkA, sequence (P04629 33-796, species assumed): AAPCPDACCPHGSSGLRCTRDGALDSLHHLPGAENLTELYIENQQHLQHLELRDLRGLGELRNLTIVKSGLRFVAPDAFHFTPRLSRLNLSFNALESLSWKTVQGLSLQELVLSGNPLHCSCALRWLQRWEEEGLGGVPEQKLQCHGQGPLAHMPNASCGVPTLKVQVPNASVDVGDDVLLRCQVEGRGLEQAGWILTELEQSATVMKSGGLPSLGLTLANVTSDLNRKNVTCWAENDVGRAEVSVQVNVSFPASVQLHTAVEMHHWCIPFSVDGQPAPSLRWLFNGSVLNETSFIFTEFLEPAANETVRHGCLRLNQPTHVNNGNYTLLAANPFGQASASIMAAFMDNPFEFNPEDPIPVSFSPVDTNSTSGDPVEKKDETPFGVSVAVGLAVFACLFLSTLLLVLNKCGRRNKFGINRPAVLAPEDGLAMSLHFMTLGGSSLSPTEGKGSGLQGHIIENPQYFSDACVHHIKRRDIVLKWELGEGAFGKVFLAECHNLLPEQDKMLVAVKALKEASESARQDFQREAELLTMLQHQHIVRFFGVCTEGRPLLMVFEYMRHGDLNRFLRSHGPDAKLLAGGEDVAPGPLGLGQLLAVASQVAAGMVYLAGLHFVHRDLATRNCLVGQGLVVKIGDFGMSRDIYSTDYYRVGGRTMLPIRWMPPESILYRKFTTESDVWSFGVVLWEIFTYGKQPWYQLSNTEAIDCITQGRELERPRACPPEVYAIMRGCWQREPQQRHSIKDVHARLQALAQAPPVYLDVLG
From the text: as §1

Tie2 = Tie2 (Homo sapiens, UniProt Q02763); assay: Tie2 inhibition screen; type: biochemical; settings: ATP at or close to Km
From the text: as §1

[2] = COLO 205, read-out: Colo205 inh 3H-Thy incorporation after 72 hours IC50 (uM)
[3] = COLO 205, read-out: Colo205 inh 3H-Thy incorporation after 96 hours IC50 (uM)
[4] = Table 6, introduced as Ki values

| SMILES | pKi (FLT-3) | pKi [1] | pKi (JAK-2) | IC50 (Colo205 cells; [2]) [µM] | IC50 (Colo205 cells; [3]) [µM] | other results |
| --- | --- | --- | --- | --- | --- | --- |
| CCC(=O)Nc1ccc(Sc2nc(Nc3cc(C)n[nH]3)cc(N3CC(O)(C4CC4)C3)n2)cc1 [Compound I-2] | 7.44 | 7.19 | 7.59 | 0.026 | 0.026 | – |
| CCC(=O)Nc1ccc(Sc2nc(Nc3cc(C)n[nH]3)cc(N3CC(O)(C4CCCC4)C3)n2)cc1 [Compound I-3] | 7.59 | 7.52 | 7.47 | 0.002 | 0.004 | – |
| CCC(=O)Nc1ccc(Sc2nc(Nc3cc(C)n[nH]3)cc(N3CC(O)(C(C)C)C3)n2)cc1 [Compound I-5] | 7.68 | – | 7.59 | – | 0.033 | – |
| CCC(=O)Nc1ccc(Sc2nc(Nc3cc(C)n[nH]3)cc(N3CC(O)(C(C)CC)C3)n2)cc1 (stereo not drawn) [Compound I-6] | 7.32 | – | 7.36 | – | 0.024 | – |
| CCC(=O)Nc1ccc(Sc2nc(Nc3cc(C4CC4)[nH]n3)cc(N3CC(O)(C4CC4)C3)n2)cc1 [Compound I-7] | 7.64 | – | 7.64 | – | 0.022 | – |
| Cc1cc(Nc2cc(N3CC(O)(C4CC4)C3)nc(Sc3ccc(NC(=O)C4CC4)cc3)n2)n[nH]1 [Compound I-8] | 7.55 | 7.52 | 7.39 | 0.04 | 0.033 | – |
| Cc1cc(Nc2cc(N3CC(O)(C4CC4)C3)nc(Sc3ccc(NC(=O)C4CCCC4)cc3)n2)[nH]n1 [Compound I-9, N-(4-((4-(3-methyl-1H-pyrazol-5-ylamino)-6-(3-cyclopropyl-3-hydroxyazetidin-1-yl)pyrimidin-2-yl)sulfanyl)phenyl)cyclopentanecarboxamide] | 6.96 | – | 7.66 | – | 0.016 | – |
| O=C(Nc1ccc(Sc2nc(Nc3cc(C4CC4)[nH]n3)cc(N3CC(O)(C4CC4)C3)n2)cc1)C1CC1 [Compound I-10] | 8.60 | – | 7.27 | – | 0.042 | – |
| Cc1cc(Nc2cc(N3CC(O)(C4CC4)C3)nc(Sc3ccc(NC(=O)C4CC4)cc3F)n2)[nH]n1 [Compound I-11, N-(4-((4-(3-methyl-1H-pyrazol-5-ylamino)-6-(3-cyclopropyl-3-hydroxyazetidin-1-yl)pyrimidin-2-yl)sulfanyl)-3-fluorophenyl)cyclopropanecarboxamide] | 7.70 | – | 7.82 | – | 0.028 | – |
| Cc1cc(Nc2cc(N3CC(O)(C4CC4)C3)nc(Sc3ccc(NC(=O)C4CC4(F)F)cc3)n2)[nH]n1 (stereo not drawn) [Compound I-12] | 7.82 | – | 8.54 | 0.019 | – | – |
| Cc1cc(Nc2cc(N3CC(F)(C4CC4)C3)nc(Sc3ccc(NC(=O)C4CC4)cc3)n2)n[nH]1 [Compound I-13] | 7.37 | 7.06 | 6.96 | 0.072 | 0.039 | – |
| Cc1cc(Nc2cc(N3CC(F)(C4CC4)C3)nc(Sc3ccc(NC(=O)CC(F)(F)F)cc3)n2)[nH]n1 [Compound I-14, N-(4-(4-(3-methyl-1H-pyrazol-5-ylamino)-6-(3-cyclopropyl-3-fluoroazetidin-1-yl)pyrimidin-2-ylthio)phenyl)-3,3,3-trifluoropropanamide] | 7.19 | 7.64 | 7.96 | 0.006 | 0.006 | pIC50 (MLK1; Table 5): 7.57; pIC50 (MLK1; [4]): 7.85; pIC50 (FGFR1; Table 5): 6.92; pIC50 (FGFR1; [4]): 7.19; pIC50 (Arg (Abl-2); Table 5): 7.85; pIC50 (Arg (Abl-2); [4]): 8.48; pIC50 (TrkA; Table 5): 7.74; pIC50 (TrkA; [4]): 8.30; pIC50 (Tie2; Table 5): 7.05; pIC50 (Tie2; [4]): 7.33 |
| Cc1cc(Nc2cc(N3CC(F)(C4CC4)C3)nc(Sc3ccc(NC(=O)C4CC4)cc3F)n2)n[nH]1 [Compound I-18] | 6.80 | – | 6.44 | 0.027 | – | pIC50 (FGFR1; Table 5): 7.66; pIC50 (Arg (Abl-2); Table 5): 7.28 |
| Cc1cc(Nc2cc(N3CC(F)(C4CC4)C3)nc(Sc3ccc(NC(=O)CC4CC4)cc3)n2)[nH]n1 [Compound I-19] | 6.85 | – | 6.89 | 0.05 | – | pIC50 (FGFR1; Table 5): 7.46; pIC50 (Arg (Abl-2); Table 5): 6.89 |
| Cc1cc(Nc2cc(N3CC(F)(C4CC4)C3)nc(Sc3ccc(NC(=O)C4CC4(F)F)cc3)n2)[nH]n1 (stereo not drawn) [Compound I-20] | 7.14 | – | 7.29 | 0.012 | – | – |
| Cc1cc(Nc2cc(N3CC(F)(C4CC4)C3)nc(Sc3ccc(NC(=O)CC(F)(F)F)nc3)n2)[nH]n1 [Compound I-21, N-(5-(4-(3-methyl-1H-pyrazol-5-ylamino)-6-(3-cyclopropyl-3-fluoroazetidin-1-yl)pyrimidin-2-ylthio)pyridin-2-yl)-3,3,3-trifluoropropanamide] | 6.92 | – | 7.55 | 0.02 | – | – |
